{"source": "patent US20150140002A1", "about": "“USE OF A PCSK9 INHIBITOR TO TREAT […]” (Sanofi, priority 2013, published 2015)", "tested_on": "patients with primary hypercholesterolemia (heFH and non-FH) who are intolerant to statins", "settings": "in vivo", "data": [{"smiles": "CC(C)c1c(C(=O)Nc2ccccc2)c(-c2ccccc2)c(-c2ccc(F)cc2)n1CC[C@@H](O)C[C@@H](O)CC(=O)O", "note": "[atorvastatin]", "values": [{"measurement": "Cardiac disorders (SOC)", "setting": "human", "value": "2 (3.2%) patients (%)"}, {"measurement": "Ear and labyrinth disorders (SOC)", "setting": "human", "value": "1 (1.6%) patients (%)"}, {"measurement": "General allergic TEAEs (MedDRA SMQ Hypersensitivity)", "setting": "human", "value": "4 (6.3%) patients (%)"}, {"measurement": "Investigations (SOC)", "setting": "human", "value": "3 (4.8%) patients (%)"}, {"measurement": "Myalgia", "setting": "human", "value": 27, "unit": "%"}, {"measurement": "Psychiatric disorders (SOC)", "setting": "human", "value": "2 (3.2%) patients (%)"}, {"measurement": "Skeletal muscle-related TEAEs (CMQ preferred term)", "setting": "human", "value": "25 (39.7%) patients (%)"}, {"measurement": "TEAEs", "setting": "human", "value": "54 (85.7%) patients (%)"}, {"measurement": "Treatment-emergent SAEs", "setting": "human", "value": "7 (11.1%) patients (%)"}, {"measurement": "Treatment-emergent injection site reactions (ISRs)", "setting": "human", "value": "1 (1.6%) patients (%)"}, {"measurement": "Treatment-emergent neurologic AEs", "setting": "human", "value": "8 (12.7%) patients (%)"}, {"measurement": "Treatment-emergent skeletal muscle-related events resulting in early treatment discontinuation", "setting": "human", "value": "13 (20.6%) patients (%)"}, {"measurement": "back pain", "setting": "human", "value": 7.9, "unit": "%"}, {"measurement": "early termination due to musculoskeletal and connective tissues disorders SOC events", "setting": "human", "value": "14 [22.2%] patients [%]"}, {"measurement": "fatigue", "setting": "human", "value": 7.9, "unit": "%"}, {"measurement": "headache", "setting": "human", "value": 6.3, "unit": "%"}, {"measurement": "insomnia", "setting": "human", "value": "1 (1.6%) reports (%)"}, {"measurement": "muscle spasms", "setting": "human", "value": 11.1, "unit": "%"}, {"measurement": "muscular weakness", "setting": "human", "value": 6.3, "unit": "%"}, {"measurement": "palpitations", "setting": "human", "value": "0 reports (%)"}, {"measurement": "paraesthesia", "setting": "human", "value": 6.3, "unit": "%"}, {"measurement": "patients who prematurely discontinued study treatment due to a TEAE", "setting": "human", "value": "16 (25.4%) patients (%)"}, {"measurement": "patients who prematurely terminated study treatment due to adverse events", "setting": "human", "value": "16 (25.4%) patients (%)"}, {"measurement": "rate of AEs", "setting": "human", "value": 86, "unit": "%"}, {"measurement": "vertigo", "setting": "human", "value": "1 (1.6%) reports (%)"}, {"measurement": "Treatment-emergent neurocognitive disorders", "value": "zero"}]}]}
